Test results taken from ChEMBL document CHEMBL1201862, “PubChem BioAssay data set” (2004).
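Where inhibition never reached the appropriate level, the endpoint shown equals the highest concentration tested. Otherwise, values were interpolated linearly from a five-concentration, 48-hour dose response in 96-well plates. The concentration for 50% growth inhibition is given as GI50.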 The source made the active and inactive calls. No stated cut-off is given here; in the data, active = GI50 up to about 1.1 µM and inactive = higher.

Assays:
Assay in all cases: NCI tumour cell line growth inhibition, 48 h
A549 = tested on: A549
ACHN = tested on: ACHN
CAKI-1 = tested on: CAKI-1
HCC 2998 = tested on: HCC 2998
K562 = tested on: K562
KM12 = tested on: KM12
M14 = tested on: M14
MCF7 = tested on: MCF7
MDA-MB-231 = tested on: MDA-MB-231
MDA-MB-435 = tested on: MDA-MB-435
MDA-N = tested on: MDA-N
Malme-3M = tested on: Malme-3M
NCI-H23 = tested on: NCI-H23
OVCAR-4 = tested on: OVCAR-4
SK-MEL-28 = tested on: SK-MEL-28
SK-OV-3 = tested on: SK-OV-3
SN12C = tested on: SN12C
SNB-75 = tested on: SNB-75
SR = tested on: SR
U-251 = tested on: U-251

Measured: GI50

CC1C2CC(C/C2=N/O)C1(C)C (stereo not drawn)
inactive: A549 > 100 µM | ACHN > 100 µM | CAKI-1 > 100 µM | HCC 2998 > 100 µM | K562 > 100 µM | KM12 > 100 µM | M14 > 100 µM | MCF7 > 100 µM | MDA-MB-231 > 100 µM | MDA-MB-435 > 100 µM | MDA-N > 100 µM | Malme-3M > 100 µM | NCI-H23 > 100 µM | OVCAR-4 > 100 µM | SK-MEL-28 > 100 µM | SK-OV-3 > 100 µM | SN12C > 100 µM | SNB-75 > 100 µM | SR > 100 µM | U-251 > 100 µM

CCOP(=O)(OCC)Oc1c(OC)c2[nH]c(C(=O)OC)cc2c2c(C(=O)O)c[nH]c12
inactive: A549 > 100 µM | ACHN > 100 µM | CAKI-1 > 100 µM | HCC 2998 > 100 µM | K562 > 100 µM | KM12 28.6 µM | M14 > 100 µM | MCF7 > 100 µM | MDA-MB-231 > 100 µM | MDA-MB-435 > 100 µM | MDA-N > 100 µM | Malme-3M > 100 µM | NCI-H23 > 100 µM | OVCAR-4 > 100 µM | SK-MEL-28 > 100 µM | SK-OV-3 > 100 µM | SN12C > 100 µM | SNB-75 > 100 µM | SR > 100 µM | U-251 > 100 µM

NC(=S)SC1=NC(=O)C2(NN1)c1ccccc1-c1ccccc12
inactive: A549 > 10 µM | ACHN 5.36 µM | CAKI-1 > 10 µM | HCC 2998 > 10 µM | KM12 > 10 µM | M14 > 10 µM | MCF7 > 10 µM | MDA-MB-231 > 10 µM | MDA-MB-435 > 10 µM | MDA-N > 10 µM | Malme-3M > 10 µM | NCI-H23 > 10 µM | OVCAR-4 > 10 µM | SK-MEL-28 > 10 µM | SK-OV-3 > 10 µM | SN12C > 10 µM | SNB-75 > 10 µM | SR > 10 µM

O=C1NNC2(C(=O)N1)c1ccccc1-c1ccccc12
inactive: A549 > 10 µM | ACHN > 10 µM | CAKI-1 > 10 µM | HCC 2998 > 10 µM | K562 > 10 µM | KM12 > 10 µM | M14 > 10 µM | MCF7 > 10 µM | MDA-MB-231 > 10 µM | MDA-MB-435 > 10 µM | MDA-N > 10 µM | Malme-3M > 10 µM | NCI-H23 > 10 µM | OVCAR-4 > 10 µM | SK-MEL-28 > 10 µM | SK-OV-3 > 10 µM | SN12C > 10 µM | SNB-75 > 10 µM | SR > 10 µM

COC(=O)c1c2c(cc3c1CC1(Cc4ccc(C(C)=O)cc4C1)C3)CCC2 (stereo not drawn)
inactive: A549 33.1 µM | ACHN 66.8 µM | CAKI-1 53.3 µM | HCC 2998 > 10 µM | K562 14.9 µM | KM12 17.6 µM | MCF7 37.3 µM | MDA-MB-231 20.4 µM | MDA-MB-435 6.92 µM | MDA-N 7.64 µM | Malme-3M 15.7 µM | NCI-H23 46.5 µM | OVCAR-4 41.4 µM | SK-MEL-28 63.5 µM | SK-OV-3 63.2 µM | SN12C 19.7 µM | SNB-75 30.4 µM | SR 20.7 µM | U-251 50.7 µM

O=C1Nc2ccccc2NC1C1OC(c2ccccc2)=CC1=O (stereo not drawn)
inactive: A549 > 100 µM | ACHN > 100 µM | CAKI-1 > 100 µM | HCC 2998 > 100 µM | K562 > 100 µM | KM12 > 100 µM | M14 > 100 µM | MCF7 > 100 µM | MDA-MB-231 > 100 µM | MDA-MB-435 > 100 µM | MDA-N > 100 µM | Malme-3M > 100 µM | NCI-H23 > 100 µM | OVCAR-4 > 100 µM | SK-MEL-28 > 100 µM | SK-OV-3 > 100 µM | SNB-75 > 100 µM | SR > 100 µM | U-251 > 100 µM

COC(=O)[C@]12CSC[C@H]1C[C@H](c1ccc(N(C)C)cc1)N2
inactive: A549 > 100 µM | ACHN > 100 µM | CAKI-1 > 100 µM | HCC 2998 > 100 µM | K562 > 100 µM | KM12 > 100 µM | M14 > 100 µM | MCF7 > 100 µM | MDA-MB-231 > 100 µM | MDA-MB-435 > 100 µM | MDA-N > 62.2 µM | Malme-3M > 100 µM | NCI-H23 > 100 µM | OVCAR-4 > 100 µM | SK-MEL-28 > 100 µM | SK-OV-3 > 100 µM | SN12C > 100 µM | SNB-75 > 100 µM | SR > 100 µM | U-251 > 100 µM

CC(=O)Oc1c(C)c2c(O)c3c1C1=C(OCOC1=C(C)C3=O)/C(C)=C/C(C)(O)C(O)C(C)C(O)C1C(=O)OC(C(C)C1O)C(C)(O)/C=C\C=C(C)C(=O)N2 (stereo not drawn)
inactive: A549 76 µM | ACHN 33.9 µM | CAKI-1 17.1 µM | HCC 2998 69.5 µM | K562 21.7 µM | KM12 34.8 µM | M14 34.4 µM | MCF7 37.1 µM | MDA-MB-231 21.5 µM | MDA-MB-435 > 100 µM | MDA-N > 100 µM | Malme-3M 41.9 µM | NCI-H23 50.5 µM | SK-MEL-28 81.5 µM | SK-OV-3 35.5 µM | SN12C 35 µM | SNB-75 24 µM | SR 43.3 µM | U-251 39.7 µM

Cc1ccc2[nH]/c(=N/S(=O)(=O)c3cc(C)c(Cl)cc3S)[nH]c2c1
inactive: A549 44.2 µM | ACHN 41.2 µM | CAKI-1 48.1 µM | HCC 2998 > 100 µM | K562 50.2 µM | KM12 41.6 µM | M14 97.7 µM | MCF7 64.1 µM | MDA-MB-231 > 100 µM | MDA-MB-435 28.4 µM | MDA-N 87.5 µM | Malme-3M > 100 µM | NCI-H23 66.2 µM | OVCAR-4 65 µM | SK-MEL-28 45.7 µM | SK-OV-3 > 100 µM | SN12C > 100 µM | SNB-75 25.1 µM | SR 31.6 µM | U-251 24 µM

C/C=C\C(CC(=O)O)CC(=O)NCCC1CN(S(=O)(=O)C(F)(F)F)c2ccccc21 (stereo not drawn)
inactive: A549 > 100 µM | ACHN > 100 µM | CAKI-1 > 100 µM | HCC 2998 > 100 µM | K562 > 100 µM | KM12 > 100 µM | M14 > 100 µM | MCF7 > 100 µM | MDA-MB-231 > 100 µM | MDA-MB-435 > 100 µM | MDA-N > 100 µM | Malme-3M > 100 µM | NCI-H23 > 100 µM | OVCAR-4 > 100 µM | SK-MEL-28 > 100 µM | SK-OV-3 > 100 µM | SNB-75 > 100 µM | SR > 100 µM | U-251 > 100 µM
